Measurements reported in patent US20200385777A1, “METHOD FOR DETERMINING DYSBIOSIS IN THE INTESTINAL MICROBIOME” (EVOLVE BIOSYSTEMS, INC., priority 2018, published 2020).

Experiments:
[1] = system: isolate 7005-5; assay: MIC microdilution, fecal isolate 7005-5; assay type: cell-based; conditions: for MIC: read-out: Minimum inhibitory concentration (MIC)
Protocol: (§1) Whole genome sequencing and assembly of bacterial isolates. […] Selected isolates were grown in 20 ml LB broth overnight at 37° C. Cultures were aliquoted into 1 ml aliquots, centrifuged at 10,000×g for 5 min and the supernatant was removed. Cell pellets were resuspended in DNA/RNA Shield solution provided in DNA/RNA Shield Microbe Lysis tubes (Zymo Research, Irvine Calif.) and transferred into lysis tubes. High-molecular weight genomic DNA was extracted using the Quick-DNA Fecal/Soil
(§2) Minimal inhibitory concentrations. […] Carbenicillin was added to growth media for transformed strains at a concentration of 100 μg/ml. The microtiter plates were incubated for 24 h at 37° C. The optical density (OD) of each well was measured at 600 nm using an automated microtiter plate reader (BIO-TEK, Synergy HT). The MIC corresponded to the lowest antibiotic concentration at which no growth was detected. All tests were performed in triplicate

[2] = system: isolate 7005-9; assay: MIC microdilution, fecal isolate 7005-9; assay type: cell-based; conditions: for MIC: read-out: Minimum inhibitory concentration (MIC)
Protocol: as §1, §2

[3] = system: isolate 7005-11; assay: MIC microdilution, fecal isolate 7005-11; assay type: cell-based; conditions: for MIC: read-out: Minimum inhibitory concentration (MIC)
Protocol: as §1, §2

[4] = system: isolate 7005-13; assay: MIC microdilution, fecal isolate 7005-13; assay type: cell-based; conditions: for MIC: read-out: Minimum inhibitory concentration (MIC)
Protocol: as §1, §2

[5] = system: isolate 7084-1; assay: MIC microdilution, fecal isolate 7084-1; assay type: cell-based; conditions: for MIC: read-out: Minimum inhibitory concentration (MIC)
Protocol: as §1, §2

[6] = system: isolate 7084-4; assay: MIC microdilution, fecal isolate 7084-4; assay type: cell-based; conditions: for MIC: read-out: Minimum inhibitory concentration (MIC)
Protocol: as §1, §2

[7] = system: isolate 7084-5; assay: MIC microdilution, fecal isolate 7084-5; assay type: cell-based; conditions: for MIC: read-out: Minimum inhibitory concentration (MIC)
Protocol: as §1, §2

[8] = system: isolate 7122-1; assay: MIC microdilution, fecal isolate 7122-1; assay type: cell-based; conditions: for MIC: read-out: Minimum inhibitory concentration (MIC)
Protocol: as §1, §2

[9] = system: isolate 7122-2; assay: MIC microdilution, fecal isolate 7122-2; assay type: cell-based; conditions: for MIC: read-out: Minimum inhibitory concentration (MIC)
Protocol: as §1, §2

[10] = system: isolate 7122-9; assay: MIC microdilution, fecal isolate 7122-9; assay type: cell-based; conditions: for MIC: read-out: Minimum inhibitory concentration (MIC)
Protocol: as §1, §2

[11] = system: isolate 7174-2; assay: MIC microdilution, fecal isolate 7174-2; assay type: cell-based; conditions: for MIC: read-out: Minimum inhibitory concentration (MIC)
Protocol: as §1, §2

[12] = system: isolate 7174-4; assay: MIC microdilution, fecal isolate 7174-4; assay type: cell-based; conditions: for MIC: read-out: Minimum inhibitory concentration (MIC)
Protocol: as §1, §2

[13] = system: isolate 7174-5; assay: MIC microdilution, fecal isolate 7174-5; assay type: cell-based; conditions: for MIC: read-out: Minimum inhibitory concentration (MIC)
Protocol: as §1, §2

[14] = system: DH5α; assay: MIC microdilution, DH5α; assay type: cell-based; conditions: for MIC: read-out: Minimum inhibitory concentration (MIC)
Protocol: as §2

[15] = system: bacteria isolated from EMB agar from fecal samples of control infants; assay: MIC, fecal isolates of control infants taken together; assay type: cell-based, Escherichia coli; Raoultella planticola; conditions: all fecal isolates
Protocol: To confirm the presence of full length, functional ARGs and the relationship of these ARGs to individual resistance phenotypes at the strain level, bacteria isolated from EMB agar were obtained from the fecal samples of four representative control infants. Whole-genome sequencing of twelve isolates was performed on a MinION sequencer and assembly led to an average coverage of 18× (min 5.4; max 40). Taxonomic identification was confirmed via BLASTN against the NCBI nucleotide database (https://www.ncbl.nlrn.nih.gov/nucleotide) showing three isolates classified as Raoultella planticola and the remaining nine as Escherichia coli. The CARD protein sequences collection was used as query against the twelve assembled isolates via TBLASTN. […] The latter genes are likely absent on the E. coli and R. planticola genomes and present on different species.
Whole genome sequencing and assembly of bacterial isolates. […]
Minimal inhibitory concentrations. Minimal inhibitory concentrations (MICs) were determined according to Clinical and Laboratory Standards Institute guidelines for microdilution susceptibility testing {Wikler, 2006}. […] The optical density (OD) of each well was measured at 600 nm using an automated microtiter plate reader (BIO-TEK, Synergy HT). The MIC corresponded to the lowest antibiotic concentration at which no growth was detected. […]

[16] = system: Clostridium difficile; assay: Equine trial: Clostridium difficile diarrhea outcome in foals; assay type: in vivo, horse; conditions: all foals dosed at birth with 6.6 mg/kg
Protocol: Seventeen foals were born during the initiation of the outbreak, of which fifteen animals became ill and required intervention, applying the standard of care (i.e., antibiotic treatment) and two died. […] All treated animals were given doses immediately at birth and twice per day thereafter for 4 days. […] Two foals, who were dosed starting at 12 hours of life rather than immediately at birth, developed a mild infection by Clostridium difficile but recovered within 8 hr compared to the standard recovery time of >24 hr for sick animals given the standard of care. […] A Fisher's exact test of the two populations (Standard of Care and Probiotic treated) yields a significant difference in incidences of C. difficile infection (p=0.0036) (Table 10).

CO/N=C(\C(=O)N[C@@H]1C(=O)N2C(C(=O)O)=C(COC(C)=O)CS[C@H]12)c1csc(N)n1 [Cefotaxime]
Resistant/Susceptible according to breakpoints for clinical resistance ([1]; isolate 7005-5): (R)
MIC [1]: 32 µg/mL
Resistant/Susceptible according to breakpoints for clinical resistance ([2]; isolate 7005-9): (R)
MIC [2]: 128 µg/mL
Resistant/Susceptible according to breakpoints for clinical resistance ([3]; isolate 7005-11): (R)
MIC [3]: 512 µg/mL
Resistant/Susceptible according to breakpoints for clinical resistance ([4]; isolate 7005-13): (R)
MIC [4]: 512 µg/mL
Resistant/Susceptible according to breakpoints for clinical resistance ([5]; isolate 7084-1): (S)
MIC [5]: < 4 µg/mL
Resistant/Susceptible according to breakpoints for clinical resistance ([6]; isolate 7084-4): (S)
MIC [6]: < 4 µg/mL
Resistant/Susceptible according to breakpoints for clinical resistance ([7]; isolate 7084-5): (S)
MIC [7]: < 4 µg/mL
Resistant/Susceptible according to breakpoints for clinical resistance ([8]; isolate 7122-1): (S)
MIC [8]: < 4 µg/mL
Resistant/Susceptible according to breakpoints for clinical resistance ([9]; isolate 7122-2): (S)
MIC [9]: < 4 µg/mL
Resistant/Susceptible according to breakpoints for clinical resistance ([10]; isolate 7122-9): (S)
MIC [10]: < 4 µg/mL
Resistant/Susceptible according to breakpoints for clinical resistance ([11]; isolate 7174-2): (S)
MIC [11]: < 4 µg/mL
Resistant/Susceptible according to breakpoints for clinical resistance ([12]; isolate 7174-4): (S)
MIC [12]: < 4 µg/mL
Resistant/Susceptible according to breakpoints for clinical resistance ([13]; isolate 7174-5): (S)
MIC [13]: < 4 µg/mL
Resistant/Susceptible according to breakpoints for clinical resistance [14]: (S)
MIC [14]: < 4 µg/mL

CC1(C)S[C@@H]2[C@H](NC(=O)[C@H](N)c3ccccc3)C(=O)N2[C@H]1C(=O)O [Ampicillin]
Resistant/Susceptible according to breakpoints for clinical resistance ([1]; isolate 7005-5): (R)
MIC [1]: 128 µg/mL
Resistant/Susceptible according to breakpoints for clinical resistance ([2]; isolate 7005-9): (R)
MIC [2]: 128 µg/mL
Resistant/Susceptible according to breakpoints for clinical resistance ([3]; isolate 7005-11): (R)
MIC [3]: 64 µg/mL
Resistant/Susceptible according to breakpoints for clinical resistance ([4]; isolate 7005-13): (R)
MIC [4]: 64 µg/mL
Resistant/Susceptible according to breakpoints for clinical resistance ([5]; isolate 7084-1): (R)
MIC [5]: 512 µg/mL
Resistant/Susceptible according to breakpoints for clinical resistance ([6]; isolate 7084-4): (R)
MIC [6]: 512 µg/mL
Resistant/Susceptible according to breakpoints for clinical resistance ([7]; isolate 7084-5): (R)
MIC [7]: 512 µg/mL
Resistant/Susceptible according to breakpoints for clinical resistance ([8]; isolate 7122-1): (S)
MIC [8]: 16 µg/mL
Resistant/Susceptible according to breakpoints for clinical resistance ([9]; isolate 7122-2): (S)
MIC [9]: 16 µg/mL
Resistant/Susceptible according to breakpoints for clinical resistance ([10]; isolate 7122-9): (S)
MIC [10]: 16 µg/mL
Resistant/Susceptible according to breakpoints for clinical resistance ([11]; isolate 7174-2): (R)
MIC [11]: 512 µg/mL
Resistant/Susceptible according to breakpoints for clinical resistance ([12]; isolate 7174-4): (R)
MIC [12]: 512 µg/mL
Resistant/Susceptible according to breakpoints for clinical resistance ([13]; isolate 7174-5): (R)
MIC [13]: 512 µg/mL
Resistant/Susceptible according to breakpoints for clinical resistance [14]: (S)
MIC [14]: 4 µg/mL
Resistance among the isolates [15]: With the exception of three isolates obtained from the same infant (7174), all of the isolates displayed resistance

CO/N=C(\C(=O)N[C@@H]1C(=O)N2C(C(=O)O)=C(CSC(=O)c3ccco3)CS[C@H]12)c1csc(N)n1 [ceftiofur]
Effect on health outcome related to diarrhea [16]: did not affect health outcome

CO/N=C(\C(=O)N[C@@H]1C(=O)N2C(C(=O)[O-])=C(C[N+]3(C)CCCC3)CS[C@H]12)c1csc(N)n1 [Cefepime]
MIC [1]: 16 µg/mL
MIC [2]: 64 µg/mL
MIC [3]: 512 µg/mL
MIC [4]: 512 µg/mL
MIC [5]: < 4 µg/mL
MIC [6]: < 4 µg/mL
MIC [7]: < 4 µg/mL
MIC [8]: < 4 µg/mL
MIC [9]: < 4 µg/mL
MIC [10]: < 4 µg/mL
MIC [11]: < 4 µg/mL
MIC [12]: < 4 µg/mL
MIC [13]: < 4 µg/mL
MIC [14]: < 4 µg/mL

Gentamicin
Minimum inhibitory concentration (MIC) ([1]; isolate 7005-5): <4 µg/mL
Resistant/Susceptible according to breakpoints for clinical resistance ([1]; isolate 7005-5): (S)
Minimum inhibitory concentration (MIC) ([2]; isolate 7005-9): <4 µg/mL
Resistant/Susceptible according to breakpoints for clinical resistance ([2]; isolate 7005-9): (S)
Minimum inhibitory concentration (MIC) ([3]; isolate 7005-11): <4 µg/mL
Resistant/Susceptible according to breakpoints for clinical resistance ([3]; isolate 7005-11): (S)
Minimum inhibitory concentration (MIC) ([4]; isolate 7005-13): <4 µg/mL
Resistant/Susceptible according to breakpoints for clinical resistance ([4]; isolate 7005-13): (S)
Minimum inhibitory concentration (MIC) ([5]; isolate 7084-1): <4 µg/mL
Resistant/Susceptible according to breakpoints for clinical resistance ([5]; isolate 7084-1): (S)
Minimum inhibitory concentration (MIC) ([6]; isolate 7084-4): <4 µg/mL
Resistant/Susceptible according to breakpoints for clinical resistance ([6]; isolate 7084-4): (S)
Minimum inhibitory concentration (MIC) ([7]; isolate 7084-5): <4 µg/mL
Resistant/Susceptible according to breakpoints for clinical resistance ([7]; isolate 7084-5): (S)
Minimum inhibitory concentration (MIC) ([8]; isolate 7122-1): <4 µg/mL
Resistant/Susceptible according to breakpoints for clinical resistance ([8]; isolate 7122-1): (S)
Minimum inhibitory concentration (MIC) ([9]; isolate 7122-2): <4 µg/mL
Resistant/Susceptible according to breakpoints for clinical resistance ([9]; isolate 7122-2): (S)
Minimum inhibitory concentration (MIC) ([10]; isolate 7122-9): <4 µg/mL
Resistant/Susceptible according to breakpoints for clinical resistance ([10]; isolate 7122-9): (S)
Minimum inhibitory concentration (MIC) ([11]; isolate 7174-2): <4 µg/mL
Resistant/Susceptible according to breakpoints for clinical resistance ([11]; isolate 7174-2): (S)
Minimum inhibitory concentration (MIC) ([12]; isolate 7174-4): <4 µg/mL
Resistant/Susceptible according to breakpoints for clinical resistance ([12]; isolate 7174-4): (S)
Minimum inhibitory concentration (MIC) ([13]; isolate 7174-5): <4 µg/mL
Resistant/Susceptible according to breakpoints for clinical resistance ([13]; isolate 7174-5): (S)
Minimum inhibitory concentration (MIC) [14]: <4 µg/mL
Resistant/Susceptible according to breakpoints for clinical resistance [14]: (S)
Resistance among the isolates [15]: No resistance

CN(C)[C@@H]1C(O)=C(C(N)=O)C(=O)[C@@]2(O)C(O)=C3C(=O)c4c(O)cccc4[C@@](C)(O)[C@H]3C[C@@H]12 [Tetracycline]
MIC [5]: 16 µg/mL
MIC [6]: 16 µg/mL
MIC [7]: 16 µg/mL
MIC [8]: 16 µg/mL
MIC [9]: 8 µg/mL
MIC [10]: 8 µg/mL
MIC [11]: 64 µg/mL
MIC [12]: 128 µg/mL
MIC [13]: 64 µg/mL
MIC [14]: < 4 µg/mL

Cc1nnc(SCC2=C(C(=O)O)N3C(=O)[C@@H](NC(=O)Cn4cnnn4)[C@H]3SC2)s1 [Cefazolin]
MIC [1]: 64 µg/mL
MIC [2]: 64 µg/mL
MIC [3]: 64 µg/mL
MIC [4]: 64 µg/mL
MIC [5]: 32 µg/mL
MIC [6]: 32 µg/mL
MIC [7]: 32 µg/mL
MIC [8]: 8 µg/mL
MIC [9]: 8 µg/mL
MIC [10]: 8 µg/mL
MIC [11]: 64 µg/mL
MIC [12]: 512 µg/mL
MIC [13]: 512 µg/mL
MIC [14]: < 4 µg/mL
